Source: the supplement of paper PMC3974653
Structures can show the parent of a compound that is named as a salt.

Test system: MTT (mouse pheochromocytoma)
Experiment: IC50 of cell viability (ATP content)
Conditions: (24 or 48 h)
Procedure, shortened: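 The IC50 was fitted with a four-parameter logistic equation to normalised CellTiter-Glo ATP luminescence from MTT mouse pheochromocytoma cells. These cells, in white 1536-well plates, had been treated for 24 or 48 hrs with library compounds at 8 final concentrations between 0.5 nM and 46 µM, and luminescence was read after 15 minutes. Positive-control wells served as 100% and DMSO wells as 0%.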

SMILES	IC50 of cell viability [µM]
CCN1\C=C(\C(O)=O)C(=O)C2=C1N=C(N=C2)N3CCNCC3 [Pipemidic acid]	> 46
[Na+].CCN1CCN(C(=O)N[C@H](C(=O)N[C@H]2[C@@H]3SC(C)(C)[C@@H]([N@]3C2=O)C([O-])=O)C4=CC=CC=C4)C(=O)C1=O [Piperacillin sodium salt]	> 46
C1CNCCN1 [Piperazine]	> 46
CCN1CCC[C@H](OC(=O)C(c2ccccc2)c2ccccc2)C1 [Piperidolate hydrochloride]	> 46
CCCCOCCOCCOCc1cc2c(cc1CCC)OCO2 [Piperonyl butoxide]	> 46
CN1CCN(c2cc3c(nn2)Oc2ccccc2N3C)CC1 [Pipofezine]	> 46
CCCCCCCCCCCCCCCC(=O)OCCC1CCN(CCCN2c3ccccc3Sc3ccc([S+](=O)([O-])N(C)C)cc32)CC1 [Pipothiazine palmitate]	> 46
NC(=O)CN1CCCC1=O [Piracetam]	> 46
N[S+](=O)([O-])c1cc(C(=O)O)cc(N2CCCC2)c1Oc1ccccc1 [Piretanide]	> 46
CC/1=C/N(C(=O)/C=C1)C2=CC=CC=C2 [Pirfenidone]	> 46
CCN1\C=C(\C(O)=O)C(=O)C2=C1N=C(N=C2)N3CCCC3 [Piromidic acid]	> 46
CN1\C(=C(\O)C2=C(C=CC=C2)[S+]1([O-])=O)C(=O)NC3=CC=CC=N3 [Piroxicam]	> 46
O=C(O)CC(O)CC(O)/C=C/c1c(C2CC2)nc2ccccc2c1-c1ccc(F)cc1 (stereo not given) [Pitavastatin]	> 46
COC(=O)c1ccccc1C(=O)c1ccc(OCCN2CCCCC2)cc1 [Pitofenona]	> 46
CC(C)(C)C(=O)NCCCC(=O)O [Pivagabine]	> 46
CC(C)(C)C(=O)OCOC(=O)[C@@H]1[N@]2[C@@H](SC1(C)C)[C@H](NC(=O)[C@@H](N)C3=CC=CC=C3)C2=O [Pivampicillin]	> 46
CC(C)(C)C(=O)OCOC(=O)[C@@H]1[N@]2[C@@H](SC1(C)C)[C@H](\N=C/N3CCCCCC3)C2=O [Pivmecillinam hydrochloride]	> 46
CC(C)(C)C(=O)OCOC(=O)C1N2C(=O)CC2[S+](=O)([O-])C1(C)C (stereo not given) [Pivoxil Sulbactam]	> 46
C=C[C@]1(C)C[C@@H](OC(=O)CO)[C@]2(C)C(C)CC[C@]3(CCC(=O)[C@H]32)[C@@H](C)[C@@H]1O (stereo not given in full) [Pleuromutilin]	> 46
NCCCC(N)C(=O)O [Poly-L-ornithine hydrochloride]	> 46
CCC(C)CCCCC(=O)N[C@@H](CC[NH3+])C(=O)N[C@H](C(=O)N[C@@H](CC[NH3+])C(=O)N[C@H]1CCNC(=O)C([C@@H](C)O)NC(=O)[C@@H](CCN)NC(=O)[C@H](CCN)NC(=O)[C@H](CC(C)C)NC(=O)[C@@H](CC(C)C)NC(=O)[C@H](CCN)NC1=O)[C@@H](C)O (stereo not given in full) [Polymyxin E1]	> 46
CN1C(CSCC(F)(F)F)Nc2cc(Cl)c([S+](N)(=O)[O-])cc2[S+]1(=O)[O-] (stereo not given) [Polythiazide]	> 46
CC[C@@H]([C@H](C)O)N1\N=C/N(C1=O)C2=CC=C(C=C2)N3CCN(CC3)C4=CC=C(OCC5CO[C@@](C5)(C[N]6C=NC=N6)C7=C(F)C=C(F)C=C7)C=C4 (stereo not given in full) [Posaconazole]	> 46
O=S(=O)([O-])C(F)(F)C(F)(F)C(F)(F)C(F)(F)F [Potassium nonafluoro-1-butanesulfonate]	> 46
C#CC[C@H](Cc1cnc2nc(N)nc(N)c2n1)c1ccc(C(=O)NC(CCC(=O)O)C(=O)O)cc1 (stereo not given in full) [Pralatrexate]	> 46

SMILES	IC50 of cell viability [µM]
C[n+]1ccccc1/C=N\O [Pralidoxime chloride]	> 46
CCCCOc1ccc(OCCCN2CCOCC2)cc1 [Pramoxine hydrochloride]	> 46
O=C(N[C@@H]1N=C(c2ccccc2F)c2cccc3c2N(CC3)C1=O)c1cc2ccccc2[nH]1 [Pranazepide]	> 46
C[C@]12CC[C@H]3[C@@H](C\C=C/4C[C@@H](O)CC[C@]34C)[C@@H]1CCC2=O [Prasterona]	> 46
CC(=O)Oc1cc2c(s1)CCN(C(C(=O)C1CC1)c1ccccc1F)C2 (stereo not given) [Prasugrel Hydrochloride]	> 46
COc1ccc(C(=O)c2c(C)n(CCN3CCOCC3)c3ccccc23)cc1 [Pravadoline maleate]	> 46
O=C(C1CCCCC1)N1CC(=O)N2CCc3ccccc3[C@@H]2C1 [Praziquantel]	> 46
COc1cc2nc(N3CCN(C(=O)c4ccco4)CC3)nc(N)c2cc1OC [Prazosin]	> 46
CCOC(=O)O[C@@]1(CC[C@@H]2[C@@H]3CC\C4=C\C(=O)\C=C/[C@@]4(C)[C@H]3[C@H](O)C[C@@]12C)C(=O)COC(=O)CC [Prednicarbate]	> 46
CC12C=CC(=O)C=C1CCC1C2C(O)CC2(C)C1CCC2(O)C(=O)COC(=O)CCC(=O)O (stereo not given) [Prednisolone 21-hemisuccinate]	> 46
C[C@]12CC(=O)[C@H]3[C@@H](CC\C4=C\C(=O)\C=C/[C@]34C)[C@@H]1CC[C@]2(O)C(=O)CO [Prednisone]	> 46
CC(O)C1CCC2C3CCC4CC(O)CCC4(C)C3CCC12C (stereo not given) [Pregnandiol]	> 46
CC(=O)[C@H]1CC[C@H]2C3CC=C4C[C@@H](O)CC[C@]4(C)C3CC[C@]12C (stereo not given in full) [Pregnenolona]	> 46
C[C@@H](Cc1ccccc1)NCCC(c1ccccc1)c1ccccc1.C[C@H](O)C(=O)O [Prenylamine lactate]	> 46
CCCN[C@@H](C)C(=O)Nc1ccccc1C [Prilocaine hydrochloride]	> 46
COc1cc(N[C@@H](C)CCCN)c2ncccc2c1 [Primaquine diphosphate]	> 46
CCCN(CCC)[S+](=O)([O-])c1ccc(C(=O)O)cc1 [Probenecid]	> 46
CC(C)(Sc1cc(C(C)(C)C)c(O)c(C(C)(C)C)c1)Sc1cc(C(C)(C)C)c(O)c(C(C)(C)C)c1 [Probucol]	> 46
CCN(CC)CCOC(=O)c1ccc(N)cc1 [Procaine hydrochloride]	> 46
CNNCc1ccc(C(=O)NC(C)C)cc1 [Procarbazine hydrochloride]	> 46
CN1CCN(CCCN2c3ccccc3Sc3ccc(Cl)cc32)CC1 [Prochlorperazine dimaleate]	> 46
O[C@@](CCN1CCCC1)(c1ccccc1)C1CCCCC1 [Procyclidine hydrochloride]	> 46
CC(=O)C1CCC2C3CC\C4=C\C(=O)CCC4(C)C3CCC12C (stereo not given) [Progestin]	> 46
CCCN(CCC)C(=O)C(CCC(=O)OCCCN1CCN(CCOC(=O)Cc2c(C)n(C(=O)c3ccc(Cl)cc3)c3ccc(OC)cc23)CC1)NC(=O)c1ccccc1 (stereo not given) [Proglumetacin maleate]	> 46
CCCN(CCC)C(=O)[C@@H](CCC(=O)O)NC(=O)c1ccccc1 [Proglumide]	> 46
